Patent publication US12268682B2, “Anticancer drug FL118 formulation for treatment of human cancer” (CANGET BIOTEKPHARMA, LLC, priority 2019, dated 2025)
Like-named read-outs stand apart in the source and are kept apart here.

Assays:
MM cell lines = test: BLI-based cytotoxicity assay using LUC-transduced MM cell lines; parameters: species or system human; conditions: two MM cell lines, BMMSCs or HS-5
Method: Cell lines and culture: Luciferase (LUC)-transduced MM cell lines RPMI 8226, JJN3, UM9, MM1.s, U266, L363, and OPM-2 were cultured in RPMI 1640 (Life Technologies), supplemented with 10% heat-inactivated HyClone FetalClone I serum (GE Healthcare Life Sciences) and (penicillin, 10.000 U/mL; streptomycin, […]; InVitrogen,). HS-5 was cultured in DMEM (Life Technologies), supplemented with heat-inactivated FBS (Sigma) and antibiotics.

ABCG2/BCRP = biological target: T1, ABCG2/BCRP (Homo sapiens, UniProt Q9UNQ0); conditions: cited from earlier work
T1 sequence (Q9UNQ0 1-655): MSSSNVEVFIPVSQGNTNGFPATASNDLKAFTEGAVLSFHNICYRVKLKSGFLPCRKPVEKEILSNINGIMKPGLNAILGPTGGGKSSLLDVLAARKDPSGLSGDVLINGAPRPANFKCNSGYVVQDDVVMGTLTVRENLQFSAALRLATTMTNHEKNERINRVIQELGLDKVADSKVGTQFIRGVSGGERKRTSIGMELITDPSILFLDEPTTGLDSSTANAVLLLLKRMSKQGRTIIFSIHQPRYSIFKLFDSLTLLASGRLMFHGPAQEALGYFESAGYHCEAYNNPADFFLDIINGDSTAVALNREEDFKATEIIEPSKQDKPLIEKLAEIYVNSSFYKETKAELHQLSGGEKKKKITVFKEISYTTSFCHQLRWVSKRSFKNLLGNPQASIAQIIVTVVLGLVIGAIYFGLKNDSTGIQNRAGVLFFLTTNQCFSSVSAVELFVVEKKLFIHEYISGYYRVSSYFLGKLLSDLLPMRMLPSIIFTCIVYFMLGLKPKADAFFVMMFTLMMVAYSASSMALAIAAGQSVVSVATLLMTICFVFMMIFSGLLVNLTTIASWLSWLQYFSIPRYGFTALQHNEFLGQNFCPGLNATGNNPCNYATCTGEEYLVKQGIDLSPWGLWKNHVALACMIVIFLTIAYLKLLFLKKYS

Pgp/MDR1 = Pgp/MDR1 (Homo sapiens, UniProt P08183); conditions: cited from earlier work
MM cells = conditions: previously demonstrated; cited from earlier work

Sequence of Pgp/MDR1 (P08183 whole entry): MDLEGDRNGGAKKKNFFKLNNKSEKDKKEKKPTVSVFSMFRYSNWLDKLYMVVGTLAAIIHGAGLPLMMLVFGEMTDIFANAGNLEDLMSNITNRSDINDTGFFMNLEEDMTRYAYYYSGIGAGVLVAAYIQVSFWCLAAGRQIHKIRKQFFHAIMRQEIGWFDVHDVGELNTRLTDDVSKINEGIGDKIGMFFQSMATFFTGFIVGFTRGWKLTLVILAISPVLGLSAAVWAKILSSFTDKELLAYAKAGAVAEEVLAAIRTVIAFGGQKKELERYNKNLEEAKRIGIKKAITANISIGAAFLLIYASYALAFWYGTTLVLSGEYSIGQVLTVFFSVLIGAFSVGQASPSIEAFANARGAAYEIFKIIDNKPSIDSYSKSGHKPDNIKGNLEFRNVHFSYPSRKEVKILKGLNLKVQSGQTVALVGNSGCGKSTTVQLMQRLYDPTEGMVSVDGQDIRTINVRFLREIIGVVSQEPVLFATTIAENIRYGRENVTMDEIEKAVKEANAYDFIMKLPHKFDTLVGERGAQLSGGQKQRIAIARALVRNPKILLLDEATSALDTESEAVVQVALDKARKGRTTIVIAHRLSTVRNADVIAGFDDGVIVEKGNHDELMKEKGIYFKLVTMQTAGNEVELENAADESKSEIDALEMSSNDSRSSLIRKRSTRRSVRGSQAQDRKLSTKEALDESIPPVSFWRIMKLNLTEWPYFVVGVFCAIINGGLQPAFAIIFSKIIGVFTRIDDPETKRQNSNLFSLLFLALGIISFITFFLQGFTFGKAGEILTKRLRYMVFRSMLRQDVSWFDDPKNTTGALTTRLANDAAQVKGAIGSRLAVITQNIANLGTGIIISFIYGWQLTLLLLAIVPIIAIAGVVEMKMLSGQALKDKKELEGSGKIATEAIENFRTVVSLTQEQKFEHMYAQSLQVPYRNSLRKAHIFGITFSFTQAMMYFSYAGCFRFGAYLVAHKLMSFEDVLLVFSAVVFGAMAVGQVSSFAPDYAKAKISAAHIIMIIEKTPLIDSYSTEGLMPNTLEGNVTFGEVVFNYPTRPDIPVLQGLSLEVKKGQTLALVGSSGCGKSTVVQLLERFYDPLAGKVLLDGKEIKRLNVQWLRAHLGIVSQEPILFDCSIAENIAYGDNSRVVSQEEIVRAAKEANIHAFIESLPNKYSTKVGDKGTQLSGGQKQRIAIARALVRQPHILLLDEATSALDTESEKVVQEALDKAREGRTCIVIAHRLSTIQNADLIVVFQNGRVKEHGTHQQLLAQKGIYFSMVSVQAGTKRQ

| Compound | lysis of MM cell lines by the drug upon co-culture with stromal cells (MM cell lines) | substrate of efflux pump ABCG2/BCRP (ABCG2/BCRP) | substrate of efflux pump Pgp/MDR1 (Pgp/MDR1) | other results |
| --- | --- | --- | --- | --- |
| COc1cccc2c1C(=O)c1c(O)c3c(c(O)c1C2=O)C[C@@](O)(C(=O)CO)C[C@@H]3O[C@H]1C[C@H](N)[C@H](O)[C@H](C)O1 [doxorubicin, reference compound] | significantly inhibited |  |  |  |
| CC[C@@]1(O)C(=O)OCc2c1cc1n(c2=O)Cc2cc3c(CN(C)C)c(O)ccc3nc2-1 [topotecan] |  | substrates | substrates |  |
| CC(C)C[C@H](NC(=O)[C@H](Cc1ccccc1)NC(=O)c1cnccn1)B(O)O [bortezomib, reference compound] | significantly inhibited |  |  |  |
| CCc1c2c(nc3ccc(OC(=O)N4CCC(N5CCCCC5)CC4)cc13)-c1cc3c(c(=O)n1C2)COC(=O)[C@]3(O)CC [irinotecan] |  | substrates | substrates |  |
| COCCn1c2c([n+](Cc3cnccn3)c1C)C(=O)c1ccccc1C2=O [YM155] |  |  |  | modulation of BMMSC-mediated protection against CTLs and daratumumab-dependent ADCC (MM cells): effective modulation |
| CCc1c2c(nc3ccc(O)cc13)-c1cc3c(c(=O)n1C2)COC(=O)[C@]3(O)CC [SN-38] |  |  |  | substrate of efflux pump ABCG2/BCRP (ABCG2/BCRP; not told): substrates; substrate of efflux pump Pgp/MDR1 (Pgp/MDR1; not told): substrates |
